Results on 71 molecules are retold here after the supplement of paper PMC6723410.

The test system of one experiment is GUMC-403. In words: viability at highest tested concentration (max response) relative to DMSO (% of DMSO control); higher = less cytotoxic. The following applies: library / dose series: MIPE library, 11-point 1:3 dilution; top concentration 23 µM; 48 h. A digest of the protocol:
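The value is viability at the highest tested concentration, expressed relative to vehicle control. Patient-derived GUMC-403 papilloma cells, grown by conditional reprogramming, were seeded at 700/well in 5 μL F + Y medium in 1536-well plates. After an overnight incubation at 37 °C, they received 23 nL of compound by pin tool for 48 h. Readout was CellTiter-Glo luminescence on a ViewLux, normalised to vehicle wells (100%) and empty wells (0%).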
Molecule `Cc1ccc([S+](=O)([O-])Nc2nc3ccccc3nc2Nc2ccc3nsnc3c2)cc1` registered a viability of 66.3.

Regarding `[O-]C(=O)C/1=N/C(=O)NC(=O)N1`, the viability is 90.2.

Still in this experiment, the particulars now being: library / dose series: MIPE library, 11-point 1:3 dilution; top concentration 34.6 µM; 48 h.
On to `Nc1ncnc2c1ncn2[C@@H]1O[C@@H](CO)[C@H](O)[C@@H]1O`, for which the viability is 118.

Still in this experiment, the particulars now being: library / dose series: MIPE library, 11-point 1:3 dilution; top concentration 46.1 µM; 48 h.
Molecule `CC(C)(C)c1cc(NC(=O)Nc2ccc(-c3cn4c(n3)sc3cc(OCCN5CCOCC5)ccc34)cc2)no1` displayed a viability of 121.

`CC(C)(O)[C@H]1CC[C@@](C)([C@H]2[C@@H](O)C[C@@]3(C)[C@@H]4C[C@H](O[C@@H]5O[C@H](CO)[C@@H](O)[C@H](O)[C@H]5O)[C@H]5C(C)(C)[C@@H](O[C@@H]6OC[C@@H](O)[C@H](O)[C@H]6O)CC[C@@]56C[C@@]46CC[C@]23C)O1` had a viability of 119.

For the molecule `Cc1ccc(C)c(OCCCC(C)(C)C(=O)O)c1`, the viability was 108.

`C=C1/C(=C\C=C2/CCC[C@]3(C)[C@@H]([C@H](C)CCCC(C)(C)O)CC[C@@H]23)C[C@@H](O)C[C@@H]1O` showed a viability of 145.

As for `Cc1ccc(C(=O)Nc2cccc(C(F)(F)F)c2)cc1Nc1nc(-c2cccnc2)nc2c1cnn2C`, the viability is 87.4.

The molecule `OC1=C(Cl)C=C(N\C2=C(\C(=O)NC2=O)C3=C(C=CC=C3)[N+]([O-])=O)C=C1` displayed a viability of 103.

Take `OCc1ccc(-c2nn(Cc3ccccc3)c3ccccc23)o1`: the viability turned out to be 94.3.

For `CN1C(=O)C[C@H](C(=O)N[C@@H](Cc2cnc[nH]2)C(=O)N2CCC[C@H]2C(N)=O)NC1=O`, the viability was 103.

`OCCn1cc(-c2cnc3nnn(Cc4ccc5ncccc5c4)c3n2)cn1`: the viability amounted to 106.

`NC1CCC(Nc2nc(Nc3ccc(C(=O)N4CCCCC4)cc3)c3ncn(-c4cccc(F)c4)c3n2)CC1` (stereo unspecified) displayed a viability of 86.

In turn, `COc1ccc(-c2oc3cc(OC)ccc3c2C(=O)c2ccc(C#N)cc2)cc1` registered a viability of 142.

Molecule `COc1cc2c(cc1OC)CC(=O)N(CCCN(C)C[C@H]1Cc3cc(OC)c(OC)cc31)CC2.Cl` registered a viability of 129.

`CN(C[C@@H]1COCCO1)[S+]([O-])(=O)NC2=CC3=C(C=C2)\C=C/C4=C(C=C(C=N4)C5=C[N](C)N=C5)C3=O` returned a viability of 114.

`CN(C)C1=C(Br)C=C(C=C1)C\2NC3=C(\C4=C2C(=O)CC(C)(C)C4)C5=CC=CC=C5C=C3` (stereo unspecified): the viability came to 99.8.

In the case of `Cc1cccc(Nc2ccncc2[S+](=O)([O-])NC(=O)NC(C)C)c1`, the viability is 108.

The molecule `NC[C@@H]1O[C@H](O[C@H]2[C@@H](O)[C@H](O[C@@H]3[C@@H](O)[C@H](N)C[C@H](N)[C@H]3O[C@H]3O[C@H](CN)[C@@H](O)[C@H](O)[C@H]3N)O[C@@H]2CO)[C@H](N)[C@@H](O)[C@@H]1O.O=S(=O)(O)O.O=S(=O)(O)O.O=S(=O)(O)O` came in with a viability of 119.

Regarding `CC1(C)O[C@@H]2C[C@H]3[C@@H]4CCC5=CC(=O)C=C[C@]5(C)[C@@]4(F)[C@@H](O)C[C@]3(C)[C@]2(C(=O)CO)O1`, the viability amounted to 117.

For `COc1ccc(-n2c(C)c([N+](=O)[O-])c3ccc(O)cc32)cc1`, the viability worked out at 87.

`CC(C)(N)c1ccc(-c2nc3ccccc3nc2-c2ccccc2)cc1` showed a viability of 116.

For the molecule `CC1(C)CCC(C)(C)c2cc(NC(=O)c3ccc(C(=O)O)cc3)ccc21`, the viability came to 54.2.

The molecule `COC1=CC=C(C(=C1)OC(C)C)C/2=N/[C@@H]([C@@H](N2C(=O)N3CCNC(=O)C3)C4=CC=C(Cl)C=C4)C5=CC=C(Cl)C=C5` displayed a viability of 121.

With `CN(C)CCCN\C1=C\2C(=O)N(C)C(=O)\N=C2N(C)C3=C1C=CC=C3`, the viability was determined as 107.

For the molecule `Nc1cccc2c1C(=O)N(C1CCC(=O)NC1=O)C2=O` (stereo unspecified), the viability is 107.

`O=C1\C=C/C[C@@H]2[C@H]3CCCN4CCC[C@@H](CN12)[C@@H]34` showed a viability of 108.

As to `OC(=O)\C1=C\N(C2=CC=C(F)C=C2)C3=C(C=C(F)C(=C3)N4CCNCC4)C1=O`, the viability amounted to 120.

On to `CCOC(=O)c1c(/C(C#N)=C\N)c2ccc(Cl)c(Cl)c2n1C`, for which the viability is 92.2.

Take `CC(C)C[C@H](CN)CC(=O)O`: the viability was determined as 117.

Molecule `N=C1S/C(=C\c2ccc(-c3ccc4c(c3)C(=O)NC4=O)o2)C(=O)N1c1ccc(Br)cc1` registered a viability of 142.

`COc1cc2nc(N(C)CCCNC(=O)C3CCCO3)nc(N)c2cc1OC` (stereo unspecified) yielded a viability of 116.

`CCN(c1ccccc1)c1cc(NC)[n+](C)c(C)n1`: the viability came out at 115.

Consider `NC(=O)Nc1sc(-c2ccc(F)cc2)cc1C(N)=O`, for which the viability stood at 51.7.

Regarding `COc1cc([C@@H]2c3cc4c(cc3[C@H](O)[C@H]3COC(=O)[C@@H]23)OCO4)cc(OC)c1OC`, the viability came out at 99.5.

As to `NC/1=N/C(=O)N(/C=C1F)[C@H]2CS[C@H](CO)O2`, the viability was 115.

With `CC(=O)OCC(=O)[C@@]1(O)CC[C@H]2[C@@H]3CCC/4=C/C(=O)/C=C\[C@]4(C)[C@H]3[C@@H](O)C[C@]12C`, the viability was 123.

The molecule `O[C@@H]1[C@@H](O)[C@H](O[C@@H]([C@H]1O)C(O)=O)OC2=C(O)C(=C3C(=O)\C=C(/OC3=C2)C4=CC=CC=C4)O` yielded a viability of 133.

With `NC12CC3CC(CC(C3)C1)C2`, the viability was found to be 136.

Regarding `O=C(NCC1CCCCN1)c1cc(OCC(F)(F)F)ccc1OCC(F)(F)F` (stereo unspecified), the viability worked out at 87.2.

`C[C@H]1[C@@H](C(=O)C[C@H]2O[C@@H]3O[C@]4(C)CC[C@H]5[C@H](C)CC[C@@H]([C@H]2C)[C@@]35OO4)O[C@@H]2O[C@]3(C)CC[C@H]4[C@H](C)CC[C@@H]1[C@@]24OO3` displayed a viability of 121.

Consider `C\C1=C\C(=O)OC2=C1C=CC(=C2)O`, for which the viability was found to be 110.

`CCOC(=O)c1cncn1[C@H](C)c1ccccc1` showed a viability of 111.

`O=C([O-])C[C@H](O)C[C@H](O)/C=C/c1c(C2CC2)nc2ccccc2c1-c1ccc(F)cc1` had a viability of 92.1.

In the case of `CN1C2=CC(=O)/C(=N/NC(N)=O)C=C2CC1S(=O)(=O)[O-].[Na+]` (stereo unspecified), the viability worked out at 102.

`COc1cc2ncnc(Nc3ccc(F)c(Cl)c3)c2cc1NC(=O)/C=C/CN1CCCCC1` gave a viability of 63.8.

As to `CCCCCCCc1ccc(CCc2cccc(O)c2C(=O)O)cc1`, the viability is 108.

For the molecule `O=C1CC[C@@]2(O)[C@H]3Cc4ccc(O)c5c4[C@@]2(CCN3CC2CC2)[C@H]1O5`, the viability is 137.

Take `O=C(/C=C/c1c(C(=O)[O-])[nH]c2cc(Cl)cc(Cl)c12)Nc1ccccc1`: the viability came out at 111.

`Cc1nn(Cc2ccccc2Cl)c(C)c1CN(C)CC(O)COc1ccc(Cl)cc1` (stereo unspecified) registered a viability of 90.9.

Consider `CC1(C)Cc2c(-c3ccccc3)c(-c3ccc(Cl)cc3)c(CC(=O)O)n2C1`, for which the viability turned out to be 102.

`NC(=O)c1cnc(-c2ccc(C3(N)CCC3)cc2)c(-c2ccccc2)c1`: the viability was found to be 103.

With `CO[C@@H]1[C@H](N(C)C(=O)c2ccccc2)C[C@H]2O[C@]1(C)n1c3ccccc3c3c4c(c5c6ccccc6n2c5c31)C(=O)NC4`, the viability is 66.2.

Regarding `Cc1c(C)c2c(c(C)c1O)CCC(C)(COc1ccc(CC3SC(=O)NC3=O)cc1)O2` (stereo unspecified), the viability stood at 82.

The molecule `NCCCCNCCCN` registered a viability of 121.

In the case of `CCCCCCNC(=O)N1\C=C(F)/C(=O)NC1=O`, the viability stood at 106.

Turning to `CC1=CC=C(C=C1)\C2=N\C3=CC=C(Cl)C=C3OC2`, the viability was 128.

As to `C=CCn1c(=O)c2cnc(Nc3ccc(N4CCN(C)CC4)cc3)nc2n1-c1cccc(C(C)(C)O)n1`, the viability amounted to 63.1.

Consider `C#C[C@]1(O)CC[C@H]2[C@@H]3CCc4cc(OC)ccc4[C@H]3CC[C@@]21C`, for which the viability is 88.2.

Molecule `COc1cccc2c1C(=O)c1c(O)c3c(c(O)c1C2=O)C[C@@](O)(C(=O)CO)C[C@@H]3O[C@H]1C[C@H](N)[C@H](O[C@H]2CCCCO2)[C@H](C)O1` showed a viability of 57.9.

In turn, `CNC(=O)[C@H](CC/1=C/N=C\2/C=C\C\C=C12)NC(=O)[C@H](CC(C)C)CC(=O)NO` gave a viability of 66.4.

The molecule `C\C1=C(\C=C(C#N)/C(=O)N1)C2=C[N]3C=CN=C3C=C2` gave a viability of 96.

For `NC[C@H]1O[C@H](O[C@H]2[C@H](O)[C@@H](O[C@H]3O[C@H](CO)[C@@H](O)[C@H](N)[C@H]3O)[C@H](N)C[C@@H]2N)[C@H](N)C[C@@H]1O`, the viability is 125.

With `CC1OC(OC/2=C(/OC3=C(C(=CC(=C3)O)O)C2=O)C4=CC=C(O)C=C4)C(O)C(OC(C)=O)C1OC(C)=O` (stereo unspecified), the viability turned out to be 116.

`N#C[C@@H]1C[C@@H]2C[C@@H]2N1C(=O)[C@@H](N)C12CC3CC(CC(O)(C3)C1)C2` had a viability of 111.

Molecule `CN\1C(=O)/C(=C(\N=C1N2CCCC[S+]2([O-])=O)C(=O)NCC3=CC=C(F)C=C3)O` returned a viability of 121.

For the molecule `N#CC[C@H](C1CCCC1)n1cc(-c2ncnc3[nH]ccc23)cn1`, the viability is 117.

In turn, `CCCc1nc2c(C)cc(-c3nc4ccccc4n3C)cc2n1Cc1ccc(-c2ccccc2C(=O)O)cc1` registered a viability of 118.

`Nc1ncnc2c1c(-c1cccc(OCc3ccccc3)c1)cn2C1CC(CN2CCC2)C1` (stereo unspecified) had a viability of 98.4.

On to `NC1=NC=C(C=C1)C2=CC=C3N=CC\4=C(N(C(=O)\C=C4)C5=CC(=CC=C5)C(F)(F)F)C3=C2`, for which the viability was 43.7.

The molecule `C=C[C@H]1CN2CCC1C[C@H]2[C@H](O)c1ccnc2ccc(OC)cc12` (stereo partly specified) had a viability of 98.4.
